How the values were obtained:
[1] = system: mitochondrial respiration of A2780 cells; assay: Oxygen consumption rate (Clark-type O2 electrode); format: cell-based, human; conditions: A2780, 24 h at 72 h IC50 dose, compared to controls
Protocol: (§1) The analysis of the oxygen consumption rate (OCR) was performed using a Clark-type O2 electrode inserted in a thermostated airtight chamber (Oxygraph Plus System, Hansatech Instruments, King’s Lynn, Norfolk, UK). Briefly, control and treated cells (12 and 24 h) were trypsinized, washed with PBS, and suspended in culture medium to measure the steady state OCR for 10 min. The OCR values, expressed as nmol of consumed O2/mL/min, were normalized to the cellular protein content. To evaluate the response of complex I, complex II/III, and ATP-synthase-driven OCRs in the presence or absence of gold-treatment, we used the protocol described by Baracca et al.. Cells were trypsinized, washed, and resuspended in buffer containing sucrose, TRIS-HCl, MgSO4, EDTA, and KH2PO4. Cell suspension was treated with digitonin to allow cell membrane permeabilization. To stimulate complex I, 250 mM glutamate/malate was added, whereas to stimulate complex II, 250 mM succinate was added (state 2 respiration). Then, to induce ATP-synthase-driven mitochondrial respiration, 10 mM ADP was added (state 3 respiration). To estimate the mitochondrial respiratory capacity, defined as the respiratory control ratio (RCR), state 3/state 2 ratios were calculated for control and treated cells.

[2] = system: mitochondrial membrane potential (Δψm) in A2780 cells; assay: Mitochondrial membrane potential (TMRM, flow cytometry); format: cell-based, human; conditions: A2780, 48 h exposure at 72 h IC50 dose, compared to controls
Protocol: The mitochondrial membrane potential (Δψm) was measured using tetramethylrhodamine methyl ester perchlorate (TMRM), a lipophilic potentiometric fluorescent dye that distributes between the mitochondria and cytosol in proportion to Δψm by virtue of its positive charge. The amount of accumulated dye in the mitochondria, and consequently the signal intensity, is a direct function of mitochondrial potential. […] Cells were then trypsinized, washed with PBS, and incubated with 100 nM TMRM for 20 min in the dark at 37 °C. After labelling, cells were washed again, suspended in PBS, and analyzed using a FACSCantoII flow cytometer (BD Biosciences, New Jersey, USA).

Bax = assay: Western blot of Bax content; format: cell-based, human; conditions: A2780, 48 h at 72 h IC50 dose, compared to controls
Protocol: (§2) After drug treatments, cells were lysed in RIPA buffer supplemented with a cocktail of protease and phosphatase inhibitors. […] To favor the electrophoretic separation, 25% sample loading buffer (SLB) was added to the cell lysates. Here, 20 µg samples of proteins from controls and treated cells were loaded on 4–20% pre-cast SDS-PAGE gels and blotted onto PVDF membranes. Primary antibodies Bcl-2 (1:1000 dilution,#sc-7382, Santa Cruz, Dallas, Texas USA), Bax (1:1000 dilution, #sc-493, Santa Cruz), OXPHOS cocktail (1:1000 dilution, #ab110413, AbCam, Cambridge, UK), citrate synthase (1:1000 dilution, #sc-515640, Santa Cruz), ASK1 (1:1000 dilution, #sc-390275, Santa Cruz), phospho(Thr838)-ASK1 (1:1000 dilution, #CPA6042, Cohesion Biosciences, London, UK), AKT (1:1000 dilution, #sc-5298, Santa Cruz), and phospho(Ser473)-AKT (1:1000 dilution, #GTX128414, GeneTex, Irvine, CA, USA) were added to 2% non-fat dry milk in PBS-tween solution, while PVDF membranes were incubated overnight at 4 °C. Then, membranes were treated with horseradish peroxidase (HRP)-conjugated secondary antibodies (1:5000 dilution, Santa Cruz) and immunoreactive bands were detected with an ECL kit detection system on an Amersham Imager 600 (GE Healthcare, Chicago, IL, USA). For the quantification, a densitometric analysis of the bands was performed using ImageJ2 software version 2.0.0-rc-64 [23]. The intensities of the immunostained bands were normalized on the Coomassie brilliant blue R-250-stained total protein from the same PVDF membrane.

[3] = system: HEK293 (human embryonic kidney) cells; assay: MTT antiproliferative assay on HEK cells; format: cell-based; conditions: for IC50: 72 h of treatment, MTT assay, mean ± SD of three experiments, read-out: Half-maximal inhibitory concentration (IC50), HEK293; for IC50 for HEK higher than for A2780 (fold): ratio of 72 h IC50 HEK / A2780
Protocol: (§3) The inhibition of cell proliferation by Au2phen, Auoxo6, and AuL12 on A2780 cell line was evaluated through MTT (3-(4,5-dimethylthiazol-2-yl)-2,5-diphenyltetrazolium bromide) test. Viable cells can convert MTT into formazan, which is coloured and detectable at 595 nm. Exponentially growing cells were seeded in 96 well-microplates at a density of 8 × 10^3 for 24 h and then gold compounds were added in fresh RPMI medium at concentrations ranging from 0.003 to 100 µM and incubated for 72 h. On the day of the test, cells were treated with 0.5 mg/mL MTT for 1 h at 37 °C. Following precipitation, blue formazan was dissolved in DMSO, and the optical density was read in a microplate reader interfaced with Microplate Manager/PV version 4.0 software (BioRad Laboratories, Hercules, USA). From the absorbance measurements, the half-maximal inhibitory concentration (IC50) value of each compound on A2780 cells was calculated using GraphPad Prism software version 6.0 (Graphpad Holdings, LLC, USA). The same protocol was applied on non-tumor cell lines, i.e., HEK and PNT1 cells.

ASK1 = assay: Western blot of phospho(Thr838)-ASK1 and total ASK1; format: cell-based, human; conditions: A2780, 24 h at 72 h IC50 dose, vs controls
Protocol: as §2

[4] = system: A2780 human ovarian cancer cell line; assay: MTT antiproliferative assay on A2780 cells; format: cell-based; conditions: for IC50: 72 h of treatment, MTT assay, mean ± SD of three experiments, read-out: Half-maximal inhibitory concentration (IC50), A2780; for cytotoxic potency on A2780 higher than that of AuL12 (fold): from 72 h IC50 values on A2780
Protocol: as §3
The effects of these 72 h exposure IC50 doses on A2780 cell viability were also evaluated using an MTT time course assay at 12, 24, 48, and 72 h of drug exposure. The experimental protocol described above was applied.

OXPHOS complex II = assay: Western blot of OXPHOS complex II content; format: cell-based, human; conditions: A2780, 24 h at 72 h IC50 dose, vs controls
Protocol: as §2

[5] = system: complex II-driven mitochondrial respiration; assay: Respiratory control ratio, complex II-driven respiration in permeabilized cells; format: cell-based, human; conditions: permeabilized A2780, 24 h treatment; control about 3.0
Protocol: as §1

[6] = system: lactate production of A2780 cells; assay: Lactate production assay (K-LATE kit) in culture medium; format: cell-based, human; conditions: A2780, 24 h treatment at 72 h IC50 dose, vs controls
Protocol: The lactate amount was measured in cell culture media after 24 h of treatment with K-LATE kit (Megazyme, Bray, Ireland) according to the data sheet provided by the manufacturer. Lactate content was normalized on the protein content of the same sample.

OXPHOS complex I = assay: Western blot of OXPHOS complex I content; format: cell-based, human; conditions: A2780, 24 h at 72 h IC50 dose, vs controls
Protocol: as §2

Row | Compound | reduction of oxygen consumption rate (OCR) [1] [%] | cells bearing lower Δψm (low TMRM fluorescence) [2] | increase of proapoptotic Bax protein (Bax) | IC50 [3] [µM] | IC50 for HEK higher than for A2780 (fold) [3] [fold] | enhancement of phospho-ASK1 levels (phosphorylated-ASK1/total ASK1 ratio) (ASK1) | IC50 [4] [µM] | decrease of complex II protein content (OXPHOS complex II) [%] | respiratory control ratio (RCR), complex II-driven [5] | increase of lactate level in medium [6] | decrease of complex I protein content (OXPHOS complex I) [%] | cytotoxic potency on A2780 higher than that of AuL12 (fold) [4] [fold]
1 | CCOC(=O)CN(C)C1=[S+][Au-]([Br])([Br])[S]1 [AuL12, dibromo(ethylsarcosinedithiocarbamate)gold(III), reference compound] | 18 | ~36% | ~34% | 10.7 ± 0.36 | 2.7 | about 25% | 4 ± 0.03 | 40 | about 2.4 | ~29% | 28 | 
2 | Cc1cccc2[n+]1[Au-]1([O][Au-]3([O]1)[n+]1c(C)cccc1-c1cccc(C)[n+]13)[n+]1c(C)cccc1-2.F[P-](F)(F)(F)(F)F.F[P-](F)(F)(F)(F)F [Auoxo6, ((6,6′-dimethyl-2,2′-bipyridine)2Au2(µ-O)2)(PF6)2] | 24.7 | 17% | ~20% | 6.16 ± 0.04 | 5 | about 23% | 1.14 ± 0.18 | 70 | about 1.8 | ~25% | 50 | 3.5
3 | Cc1ccc2ccc3ccc(C)[n+]4c3c2[n+]1[Au-]41[O][Au-]2([O]1)[n+]1c(C)ccc3ccc4ccc(C)[n+]2c4c31.F[P-](F)(F)(F)(F)F.F[P-](F)(F)(F)(F)F [Au2phen, ((2,9-dimethyl-1,10-phenanthroline)2Au2(µ-O)2)(PF6)2] | 26.8 | about 26% | about 29% | 4.18 ± 0.05 | 5 | about 15% | 0.8 ± 0.02 | 66 | about 1.7 | about 20% | 48 | 5
